Laboratory results: patent publication US20070254881A1, “Pyrazole Derivative” (DAIICHI PHARMACEUTICAL CO., LTD., priority 2004, published 2007)
Read-outs that look alike come from different tables or passages of the source.

Columns and labels:
[1] = test system: collagen-induced platelet aggregation; assay: Platelet aggregation suppressing effect (collagen-induced aggregation in platelet rich plasma); format: cell-based; details: human PRP, 37° C., collagen as inducer, read-out: Inhibitory effect of collagen-induced platelet aggregation IC50
Method: Human blood was collected using 3.13% sodium citrate in a volume 1/10 of the blood volume, as an anticoagulant. The collected blood was centrifuged at 180 g for 10 minutes to separate platelet rich plasma (PRP) from the blood. After collecting the PRP fraction in the upper layer, the lower layer was further centrifuged at 1600 g for 10 minutes to fractionate platelet poor plasma (PPP) in the upper layer. One μl of a solution of a compound obtained in the Examples was added to 200 μl of PRP, and the mixture was allowed to stand at 37° C. for 2 minutes. Subsequently, 2 μl of collagen was added thereto, so as to induce platelet aggregation. The platelet aggregation rate was measured using PAM-12C(SSR Engineering, Inc.).

Cyclooxygenase-1 (COX-1) = target: T1, Cyclooxygenase-1 (COX-1) (Ovis aries, UniProt P05979); assay: COX-1 inhibition, COX Inhibitor Screening Assay Kit (PGF2α production, ELISA); format: biochemical; details: compound 50 μM
T1 construct: purchased Cayman Chemical Company 560101
T1 sequence (P05979 25-600): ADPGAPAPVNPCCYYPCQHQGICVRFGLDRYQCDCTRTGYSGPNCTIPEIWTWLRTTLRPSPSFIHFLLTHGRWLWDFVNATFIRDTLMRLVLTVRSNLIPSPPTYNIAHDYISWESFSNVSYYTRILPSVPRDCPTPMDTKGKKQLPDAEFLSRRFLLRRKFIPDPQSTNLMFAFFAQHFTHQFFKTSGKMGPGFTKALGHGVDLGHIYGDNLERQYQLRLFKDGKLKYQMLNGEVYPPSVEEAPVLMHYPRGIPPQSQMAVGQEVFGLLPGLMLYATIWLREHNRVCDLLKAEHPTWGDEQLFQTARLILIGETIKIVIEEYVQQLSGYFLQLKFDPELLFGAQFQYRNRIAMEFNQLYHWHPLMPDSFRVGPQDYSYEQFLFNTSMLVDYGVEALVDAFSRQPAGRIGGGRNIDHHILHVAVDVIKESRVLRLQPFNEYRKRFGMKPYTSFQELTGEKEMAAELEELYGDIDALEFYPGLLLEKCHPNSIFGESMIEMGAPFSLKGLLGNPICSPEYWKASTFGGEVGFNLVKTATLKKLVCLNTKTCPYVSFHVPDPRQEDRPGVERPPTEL
Excerpt: (§1) For the measurement of the inhibitory activity of the compounds obtained in the Examples against COX-1 and COX-2, a COX Inhibitor Screening Assay Kit manufactured by Cayman Chemical Company (Catalog Nos. 560101 and 560121) was used.
(§2) Before starting the measurement, a reaction buffer, heme, arachidonic acid, SnCl2, EIA buffer, a washing buffer, prostaglandin (PG)-screening EIA standard solution, PG-screening acetylcholinesterase (AchE), a tracer […], and PG-screening EIA antiserum were provided.
A reaction solution containing a compound of the Examples (50 μM) and COX-1, or a reaction solution containing a compound of the Examples (300 μM) and COX-2 was allowed to stand at 37° C. for 10 minutes, then 10 μl of arachidonic acid was added thereto, and the resultant mixture was allowed to stand at 37° C. for 2 minutes. After the reaction, 50 μl of 1 N hydrochloric acid was added to the reaction mixture to stop the reaction, and 100 μl of a SnCl2 solution was added thereto. The resultant mixture was allowed to stand at room temperature for 5 minutes.
50 μl of antiserum (rabbit anti-PGF2α antibody) was added to each well of a 96-well plate coated with mouse anti-rabbit IgG. Then, 50 μl of a solution prepared by diluting the reaction solution for PGF2α production to 2000-folds, and 50 μl of an AchE tracer were added sequentially to the wells, and the plate was kept at room temperature for 18 hours. Each well washed 5 times with the washing buffer to remove excessive AchE tracer, and then 200 μl of Ellman reagent was added to each well. The plate was kept in the dark room for 60 minutes, and then, absorbance at 405 nm was measured.
A standard curve was produced using a PG-screening EIA standard solution, and the amount of PGF2α production was determined from the absorbance obtained as described above. The COX-1 inhibition rate at 50 μM of the compound of the Examples, and the COX-2 inhibition rate at 300 μM of the compound of the Examples were calculated.

Cyclooxygenase-2 (COX-2) = target: T2, Cyclooxygenase-2 (COX-2) (Homo sapiens, UniProt P35354); assay: COX-2 inhibition, COX Inhibitor Screening Assay Kit (PGF2α production, ELISA); format: biochemical; details: compound 300 μM
T2 construct: purchased Cayman Chemical Company 560121
T2 sequence (P35354 18-604): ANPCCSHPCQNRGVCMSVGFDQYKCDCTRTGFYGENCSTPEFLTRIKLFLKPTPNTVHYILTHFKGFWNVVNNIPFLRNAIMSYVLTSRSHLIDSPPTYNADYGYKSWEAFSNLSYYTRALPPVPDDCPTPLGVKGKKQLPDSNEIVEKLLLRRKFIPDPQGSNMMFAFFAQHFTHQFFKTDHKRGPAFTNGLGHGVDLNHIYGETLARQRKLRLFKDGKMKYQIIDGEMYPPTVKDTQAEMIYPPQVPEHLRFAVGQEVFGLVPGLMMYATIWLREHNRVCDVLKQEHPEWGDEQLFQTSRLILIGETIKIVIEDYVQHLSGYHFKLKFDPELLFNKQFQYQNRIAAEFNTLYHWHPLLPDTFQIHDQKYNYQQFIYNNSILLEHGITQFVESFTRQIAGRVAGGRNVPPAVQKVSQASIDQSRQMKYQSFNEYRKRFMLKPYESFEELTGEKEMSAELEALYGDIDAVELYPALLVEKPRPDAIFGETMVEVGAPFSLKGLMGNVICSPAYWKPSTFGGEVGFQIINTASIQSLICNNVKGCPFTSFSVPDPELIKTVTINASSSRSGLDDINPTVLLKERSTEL
Excerpt: as §1, §2
A reaction solution containing a compound of the Examples (50 μM) and COX-1, or a reaction solution containing a compound of the Examples (300 μM) and COX-2 was allowed to stand at 37° C. for 10 minutes, then 10 μl of arachidonic acid was added thereto, and the resultant mixture was allowed to stand at 37° C. for 2 minutes. […]
50 μl of antiserum (rabbit anti-PGF2α antibody) was added to each well of a 96-well plate coated with mouse anti-rabbit IgG. […] The plate was kept in the dark room for 60 minutes, and then, absorbance at 405 nm was measured.
A standard curve was produced using a PG-screening EIA standard solution, and the amount of PGF2α production was determined from the absorbance obtained as described above. […]

[2] = test system: collagen-induced platelet aggregation; details: background art, cited from earlier work

| Structure (SMILES) | IC50 [1] [nM] | COX-1 inhibitory action at 50 μM (% inhibition) (Cyclooxygenase-1 (COX-1)) | COX-2 inhibitory action at 300 μM (% inhibition) (Cyclooxygenase-2 (COX-2)) | IC50 ([2]; read-out: IC50 value against collagen-induced platelet aggregation) [nM] | platelet aggregation inhibitory action compared with inhibitory activity against COX-2 [2] |
| --- | --- | --- | --- | --- | --- |
| COc1ccc(-n2nc(C(=O)N3CCCC(OC)C3)cc2-c2ccccn2)cn1 (centres unmarked) [Example 34, 1-[1-(6-Methoxy-3-pyridyl)-5-(2-pyridyl)-1H-pyrazole-3-carbonyl]-3-methoxypiperidine] | 63 | −18.4 | – | – | – |
| COc1ccc(-n2nc(C(=O)N3CCN(C)C(=O)C3)cc2-c2ccn(C)n2)cn1 [Example 36, 1-[1-(6-Methoxy-3-pyridyl)-5 (1-methyl-1H-pyrazol-3-yl)-1H-pyrazole-3-carbonyl]-4-methyl-3-oxopiperazine] | 370 | 1.2 | – | – | – |
| COc1ccc(-n2nc(C(=O)N3CCOCC3)cc2-c2cc[nH]c2)nn1 [Example 41, 1-[1-(6-Methoxy-3-pyridazinyl)-5-(1H-pyrrol-3-yl)-1H-pyrazole-3-carbonyl]morpholine] | 170 | −21.3 | – | – | – |
| COc1ccc(-n2nc(C(=O)N3CCC(OC)CC3)cc2-c2cn(C)cn2)cn1 [Example 73, 1-[1-(6-Methoxy-3-pyridyl)-5-(1-methyl-1H-imidazol-4-yl)-1H-pyrazole-3-carbonyl]-4-methoxypiperidine] | 150 | 5.9 | 15.5 | – | – |
| COc1ccc(-n2nc(C(=O)N3CCOC[C@@H]3C)cc2-c2ccccn2)nn1 [Example 105, (+)(3S)-4-[1-(6-Methoxypyridazin-3-yl)-5-(2-pyridyl)-1H-pyrazole-3-carbonyl]-3-methylmorpholine] | 440 | −9.6 | – | – | – |
| COc1ccc(-n2nc(C(=O)N3CCOC[C@H]3C)cc2-c2ccccn2)nn1 [Example 107, (−)(3R)-4-[1-(6-Methoxypyridazin-3-yl)-5-(2-pyridyl)-1H-pyrazole-3-carbonyl]-3-methylmorpholine] | 430 | −3.9 | – | – | – |
| COc1ccc(-n2nc(C(=O)N3CCOCC3)cc2-c2cnn(C)c2)cn1 [Example 115, 4-[1-(6-Methoxy-3-pyridyl)-5-(1-methyl-1H-pyrazol-4-yl)-1H-pyrazole-3-carbonyl]morpholine] | 110 | −21.2 | 23.4 | – | – |
| COc1ccc(-n2nc(C(=O)N3CCOCC3)cc2-c2cscn2)cn1 [Example 118, 4-[1-(6-Methoxy-3-pyridyl)-5-(thiazol-4-yl)-1H-pyrazole-3-carbonyl]morpholine] | 79 | −12.7 | – | – | – |
| COc1ccc(-n2nc(C(=O)N3CCC(OC)CC3)cc2-c2cnn(C)c2)cn1 [Example 119, 1-[1-(6-Methoxy-3-pyridyl)-5-(1-methyl-1H-pyrazol-4-yl)-1H-pyrazole-3-carbonyl]-4-methoxypiperidine] | 160 | 13.0 | – | – | – |
| COc1ccc(-n2nc(C(=O)N3CCN(C)C(=O)C3)cc2-c2cnn(C)c2)cn1 [Example 121, 1-[1-(6-Methoxy-3-pyridyl)-5-(1-methyl-1H-pyrazol-4-yl)-1H-pyrazole-3-carbonyl]-4-methyl-3-oxopiperazine] | 710 | −0.7 | – | – | – |
| COc1ccc(-n2nc(C(=O)N3CCN(C)C(=O)C3)cc2-c2ccn(C)c2)nn1 [Example 124, 1-[1-(6-Methoxy-3-pyridazinyl)-5-(1-methyl-1H-pyrrol-3-yl)-1H-pyrazole-3-carbonyl]-4-methyl-3-oxopiperazine] | 440 | 8.3 | – | – | – |
| COc1ccc(-n2nc(C(=O)N3CCN(C)C(=O)C3)cc2-c2cscn2)cn1 [Example 126, 1-[1-(6-Methoxy-3-pyridyl)-5-(thiazol-4-yl)-1H-pyrazole-3-carbonyl]-4-methyl-3-oxopiperazine] | 360 | −6.4 | – | – | – |
| COc1ccc(-n2nc(C(=O)N3CCN(C)CC3)cc2-c2cscn2)cn1 [Example 127, 1-[1-(6-Methoxy-3-pyridyl)-5-(thiazol-4-yl)-1H-pyrazole-3-carbonyl]-4-methylpiperazine] | 230 | −21.2 | – | – | – |
| COc1ccc(-n2nc(C(=O)N3CCC(F)(F)CC3)cc2-c2cnn(C)c2)nn1 [Example 141, 1-[1-(6-Methoxy-3-pyridazinyl)-5-(1-methyl-1H-pyrazol-4-yl)-1H-pyrazole-3-carbonyl]-4,4-difluoropiperidine] | 190 | 24.4 | – | – | – |
| CS(=O)(=O)c1ccc(-c2cc(C#N)nn2-c2ccc(F)cc2)cc1 [compound (A)] | – | – | – | 5300 | – |
| COc1ccc(-c2cc(C(F)F)nn2-c2ccc(S(N)(=O)=O)cc2)cc1F [compound (B)] | – | – | – | – | not as strong as the inhibitory activity of the compound against COX-2 |
